Values joined by “and” are separate entries in the source; they are usually repeats but may differ in a detail not shown here. Identical values can stand only once. Where a SMILES comes first, the peptide text is derived from it. Bridges are numbered along the chain shown (N, C = ends).
Key:
[1] = tested on: subjects with ascites due to liver cirrhosis, not type 1 or type 2 HRS; type: in vivo, human
Procedure: 15 subjects that are to be confirmed to have ascites, but not type 1 or type 2 HRS, due to liver cirrhosis will be administered continuous low dose (escalating from 2.0 to 3.0 mg per 24 hours) terlipressin via ambulatory infusion pump. […] Accordingly, continuous infusion pump (CIP) terlipressin represents a potentially life-saving solution for these seriously ill patients who are still ambulatory (have not yet been administered to the hospital for treatment) and have not developed type 1 or type 2 HRS.

[2] = human, in vivo, cited from earlier work
[3] = human, in vivo; cited from earlier work
[4] = tested on: HRS patients with diuretic intractable or refractory ascites; test: Example 2: six HRS patients with ascites treated with continuous infusion terlipressin, evaluated before, during and after treatment; type: in vivo, human; conditions: for Body Weight After / Plasma Sodium After / Serum Creatinine After / Serum Urea After: after treatment;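 on Serum Urea After: serum urea in mmol/L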;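 on Serum Urea During: serum urea in mmol/L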
Procedure: Six FIRS patients treated with continuous infusion terlipressin were evaluated for improvement in […]. All six patients had diuretic intractable or refractory ascites (5 of 6 with hyponatremia). The patients were evaluated for the following parameters before, during and after treatment: number of paracentesis procedures per month, volume of ascites removed, weight, serum sodium, urinary sodium excretion, serum creatinine, serum urea, and whether diuretics were included in the treatment regimen.

[5] = Average (excludes patients #2, #3, #5)
[6] = Patient 1, max. dose 12 mg/day, 63 days
[7] = Patient 1, max. dose 12 mg/day, 63 days, diuretics during: A
[8] = Patient 2, max. dose 12 mg/day, 195 days
[9] = Patient 2, max. dose 12 mg/day, 195 days, diuretics during: None
[10] = Patient 3, max. dose 3 mg/day, 10 days
[11] = Patient 3, max. dose 3 mg/day, 10 days, diuretics during: None
[12] = Patient 4, max. dose 10 mg/day, 11 days
[13] = Patient 4, max. dose 10 mg/day, 11 days, diuretics during: None
[14] = Patient 5, max. dose 3 mg/day, 22 days
[15] = Patient 5, max. dose 3 mg/day, 22 days, diuretics during: None
[16] = Patient 6, max. dose 2 mg/day, 12 days
[17] = Patient 6, max. dose 2 mg/day, 12 days, diuretics during: F + A

NCCCC[C@H](NC(=O)[C@@H]1CCCN1C(=O)[C@@H]1CSSC[C@H](NC(=O)CNC(=O)CNC(=O)CN)C(=O)N[C@@H](Cc2ccc(O)cc2)C(=O)N[C@@H](Cc2ccccc2)C(=O)N[C@@H](CCC(N)=O)C(=O)N[C@@H](CC(N)=O)C(=O)N1)C(=O)NCC(N)=O [terlipressin] (H-GGGCYFQNCPKG-NH2; disulfide 4-9)
severity of ascites and accumulation of ascites fluid ([1]; 2.0 to 3.0 mg per 24 hours escalating, 1 day to 28 days, expected): decrease the severity of ascites and the accumulation of ascites fluid
average amount of fluid withdrawn after beginning therapy ([1]; compared to prior to the start of treatment, expected): significantly less than prior to the start of treatment
number of paracentesis procedures required over a 28-day period ([1]; compared to the 28-day period prior to treatment inception, expected): reduce the number of paracentesis procedures
safety of continuous infusion pump terlipressin ([1]; human, in vivo): no serious side effects
patients with side effects ([2]; iv): up to 40%
patients with severe side effects requiring discontinuation of treatment [2]: up to 10%
half-life [3]: 26 min
Plasma Sodium % Change ([4]; Average): 5%
Plasma Sodium During ([4]; Average): 135 mEq/L
Serum Creatinine % Change ([4]; Average): −47%
Serum Creatinine During ([4]; Average): 127 µM
Serum Urea % Change ([4]; Average): −45%
Serum Urea During ([4]; Average): 15.1 mmol/L
Body Weight % Change ([4]; Average (excludes Patient #4)): −11%
Body Weight During ([4]; Average (excludes Patient #4)): 73 kg
Body Weight After ([4]; Average (excludes Patient #4)): 87 kg
Paracenteses/Month % Change ([4]; Average (excludes patient #1)): −32%
Volume Fluid Removed/Month % Change ([4]; Average (excludes patient #1)): −55%
Volume Fluid Removed/Month During ([4]; Average (excludes patient #1)): 14 L
Urinary Na over 24 hours % Change [4, 5]: 1632%
Urinary Na over 24 hours During [4, 5]: 127 mEq/24 hr
Plasma Sodium After ([4]; Average): 136 mEq/L
Serum Creatinine After ([4]; Average): 105 µM
Serum Urea After ([4]; Average): 10.4 mmol/L
Plasma Sodium % Change [4, 6]: −2%
Plasma Sodium During [4, 6]: 137 mEq/L
Serum Creatinine % Change [4, 6]: −24%
Serum Creatinine During [4, 6]: 189 µM
Serum Urea % Change [4, 6]: −72%
Serum Urea During [4, 6]: 8.8 mmol/L
Urinary Na over 24 hours % Change [4, 6]: 820%
Urinary Na over 24 hours During [4, 6]: 46 mEq/24 hr
Body Weight After [4, 6]: 74 kg
Body Weight % Change [4, 7]: −11%
Body Weight During [4, 7]: 74 kg
Paracenteses/Month % Change [4, 7]: −100%
Paracenteses/Month During [4, 7]: 0 /Month
Plasma Sodium % Change [4, 8]: 2%
Plasma Sodium During [4, 8]: 128 mEq/L
Serum Creatinine % Change [4, 8]: −46%
Serum Creatinine During [4, 8]: 208 µM
Serum Urea % Change [4, 8]: −37%
Serum Urea During [4, 8]: 23.2 mmol/L
Urinary Na over 24 hours During [4, 8]: 301 mEq/24 hr
Body Weight % Change [4, 9]: 11%
Body Weight During [4, 9]: 71 kg
Paracenteses/Month % Change [4, 9]: −25%
Paracenteses/Month During [4, 9]: 6 /Month
Volume Fluid Removed/Month % Change [4, 9]: −48%
Volume Fluid Removed/Month During [4, 9]: 42 L
Plasma Sodium % Change [4, 10]: 2%
Plasma Sodium During [4, 10]: 136 mEq/L
Serum Creatinine % Change [4, 10]: −50%
Serum Creatinine During [4, 10]: 116 µM
Serum Urea % Change [4, 10]: −46%
Serum Urea During [4, 10]: 9.1 mmol/L
Body Weight After [4, 10]: 128 kg
Plasma Sodium After [4, 10]: 140 mEq/L
Serum Creatinine After [4, 10]: 122 µM
Serum Urea After [4, 10]: 10.8 mmol/L
Body Weight % Change [4, 11]: −23%
Body Weight During [4, 11]: 99 kg
Paracenteses/Month % Change [4, 11]: −50%
Paracenteses/Month During [4, 11]: 2 /Month
Volume Fluid Removed/Month % Change [4, 11]: −65%
Volume Fluid Removed/Month During [4, 11]: 14 L
Plasma Sodium % Change [4, 12]: 15%
Plasma Sodium During [4, 12]: 141 mEq/L
Serum Creatinine % Change [4, 12]: −67%
Serum Creatinine During [4, 12]: 104 µM
Serum Urea % Change [4, 12]: −28%
Serum Urea During [4, 12]: 37.3 mmol/L
Urinary Na over 24 hours % Change [4, 12]: 1900%
Urinary Na over 24 hours During [4, 12]: 20 mEq/24 hr
Paracenteses/Month % Change [4, 13]: 50%
Paracenteses/Month During [4, 13]: 3 /Month
Volume Fluid Removed/Month % Change [4, 13]: −36%
Volume Fluid Removed/Month During [4, 13]: 9 L
Plasma Sodium % Change [4, 14]: −2%
Plasma Sodium During [4, 14]: 128 mEq/L
Serum Creatinine % Change [4, 14]: −19%
Serum Creatinine During [4, 14]: 55 µM
Serum Urea % Change [4, 14]: −17%
Serum Urea During [4, 14]: 5.3 mmol/L
Body Weight After [4, 14]: 77 kg
Serum Creatinine After [4, 14]: 55 µM
Serum Urea After [4, 14]: 10.5 mmol/L
Body Weight % Change [4, 15]: −10%
Body Weight During [4, 15]: 64 kg
Paracenteses/Month % Change [4, 15]: −33%
Paracenteses/Month During [4, 15]: 2 /Month
Volume Fluid Removed/Month % Change [4, 15]: −71%
Volume Fluid Removed/Month During [4, 15]: 6 L
Plasma Sodium % Change [4, 16]: 19%
Plasma Sodium During [4, 16]: 140 mEq/L
Serum Creatinine % Change [4, 16]: −54%
Serum Creatinine During [4, 16]: 90 µM
Serum Urea % Change [4, 16]: −68%
Serum Urea During [4, 16]: 6.6 mmol/L
Urinary Na over 24 hours % Change [4, 16]: 1869%
Urinary Na over 24 hours During [4, 16]: 315 mEq/24 hr
Body Weight After [4, 16]: 68 kg
Plasma Sodium After [4, 16]: 131 mEq/L
Serum Creatinine After [4, 16]: 137 µM
Serum Urea After [4, 16]: 10.0 mmol/L
Body Weight % Change [4, 17]: −14%
Body Weight During [4, 17]: 55 kg
Paracenteses/Month % Change [4, 17]: −100%
Paracenteses/Month During [4, 17]: 0 /Month
Volume Fluid Removed/Month % Change [4, 17]: −100%
Volume Fluid Removed/Month During [4, 17]: 0 L
overall average decrease of urea concentration in blood serum ([4]; all patients, during treatment): 45%
reduction of average monthly ascites fluid volume removed ([4]; during continuous infusion therapy vs prior to initiation): 55%
decrease of average body weight per patient ([4]; during therapy, proxy for ascitic fluid accumulation): 11% and 9 kg and ~19.8 lbs
improvement of ascites seen without diuretics ([4]; during treatment, number of patients): four of six patients
plasma sodium after the cessation of therapy ([4]; patient #6): remained normal
correction of severe hyponatremia ([4]; patients #4 and #6): corrected severe hyponatremia in two patients
average urinary sodium after starting therapy ([4]; three of six patients with data before and after starting continuous infusion, increased from 7): 127 mEq/24 h
average decrease in serum creatinine levels ([4]; treated group of patients): 47%

From patent publication US11364277B2, “Treatment of ascites” (BioVie Inc., priority 2015, dated 2022)
